In article PMC12495443, “Developing inhibitors of the guanosine triphosphate hydrolysis accelerating activity of Regulator of G protein Signaling-14 [drawing 1]” (The Journal of Biological Chemistry, 2025):

Target: T1, human RGS14 RGS-box (wild-type) (Homo sapiens, UniProt O43566)
T1 construct: human RGS14 RGS-box (aa 46–195 of UniProt O43566); host or cells: E. coli
T1 sequence (O43566 46-195): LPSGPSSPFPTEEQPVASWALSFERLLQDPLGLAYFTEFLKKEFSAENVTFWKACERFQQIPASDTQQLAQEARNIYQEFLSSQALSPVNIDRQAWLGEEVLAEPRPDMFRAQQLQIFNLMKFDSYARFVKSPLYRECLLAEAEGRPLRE
Test: Transcreener GDP RGScreen fluorescence polarization assay of RGS14 RGS-box GAP activity on Gαi1(DM)
Type: biochemical
Details: wild-type RGS14 RGS-box GAP activity, Gαi1(DM), Transcreener GDP RGScreen; read-out: RGS14 pIC50 (converted)
Source text: We previously described work with BellBrook Labs creating the Transcreener GDP RGScreen fluorescence polarization assay of steady-state GTP hydrolysis, leveraging a double point-mutant in the Gα enzyme to make GTP hydrolysis, rather than GDP (product) release, the rate-limiting step for multiple rounds of GTP conversion ([57], [59]). […] Titrating inputs of the double point-mutant (“DM”) Gαi1 and RGS-box recombinant proteins (Fig. S2, B and C) established a robust, medium-throughput assay for evaluating potential RGS14 and RGS12 inhibitors, with “assay quality” Z′ scores ([60]) above 0.76 for each target (Fig. S2D).
Reagents and protocols for the fluorescence anisotropy-based Transcreener GDP RGScreen assay using a rate-altered, double point-mutant, recombinant Gαi1 protein have been extensively described previously ([43], [44]); reactions were always performed so that total GTP converted over the time course was consistently less than 10% of reaction maximum input. Specific methods for its application in assessing RGS14 and RGS12 GAP activity are summarized as follows. Open-reading frames (ORFs) encoding wild-type versions of the human RGS14 RGS-box (aa 46–195 of UniProt O43566) and human RGS12 RGS-box (aa 695–843 of UniProt O14924) were each sub-cloned in-frame with an N-terminal hexahistidine (His6) expression tag in the plasmid pET30a, expressed in E. coli cultures, and then purified by nickel-nitriloacetate (Ni-NTA) and size-exclusion (Superdex 200) column chromatographies by GenScript using previously described methods ([35]). These recombinant His6-tag fusion proteins were stored at −80 °C in storage buffer (150 mM NaCl, 50 mM Tris-HCl pH 8.0, 10% glycerol) before thawing and use. Cysteine-less versions were similarly produced by ORF site-directed mutagenesis: for RGS14, codons for cysteine residues 47 and 130 (numbered as in PDB id 2JNU) were replaced with serine codons; for RGS12, codons for cysteines 4, 51, 78, and 134 (numbered in relation to PDB id 2EBZ) were replaced with serine codons. Use of Transcreener GDP-detection reagents to assess compound inhibition of Naegleria fowleri Gα7 protein GTPase activity ([83]) has previously been described ([84]).

| SMILES | IC50 |
| --- | --- |
| COc1ccc2nc(SC(C)C(=O)c3ccc(NC(C)=O)cc3)[nH]c2c1 (stereo not drawn) [Z16077185] | > 1 mM |
| CCn1c(SC(C)C(=O)c2ccc(NC(C)=O)cc2)nc2cc(S(N)(=O)=O)ccc21 (stereo not drawn) [Z51418527] | > 1 mM |
| COc1ccc2nc(SCC(=O)c3ccc(F)cc3)[nH]c2c1 [Z16077977] | > 1 mM |
| CCn1c(SC(C)C(=O)c2ccc(OC)cc2)nc2cc(S(N)(=O)=O)ccc21 (stereo not drawn) [Z51419018] | > 1 mM |
| Cc1ccc2[nH]c(SC(C)C(=O)c3ccc(F)cc3F)nc2c1 (stereo not drawn) [Z167804418] | > 1 mM |
| COc1ccc2nc(SC(C)C(=O)c3ccc(F)c(F)c3)[nH]c2c1 (stereo not drawn) [Z16077536] | > 1 mM |
| COc1ccc2nc(SC(C)C(=O)c3ccco3)[nH]c2c1 (stereo not drawn) [Z3277796272] | > 1 mM |
| CC(=O)N1CCc2cc(C(=O)C(C)Sc3nc4cc(C)ccc4[nH]3)ccc21 (stereo not drawn) [Z165332254] | > 1 mM |
| CCn1c(SC(C)C(=O)c2cccc(Cl)c2)nc2cc(S(N)(=O)=O)ccc21 (stereo not drawn) [Z51418566] | > 1 mM |
| COc1ccc(-n2c(SC(C)C(=O)c3cc(C)c(C)cc3C)nc3ccccc32)cc1 (stereo not drawn) [Z19576531] | > 1 mM |
| CCC(Sc1nc2ccc(OC)cc2[nH]1)C(=O)c1ccc(Cl)cc1 (stereo not drawn) [Z5032180785] | > 1 mM |
| CCCCn1c(SC(C(=O)c2ccc(OC)cc2)c2ccc(OC)cc2)nc2cc(S(N)(=O)=O)ccc21 (stereo not drawn) [Z19162246] | > 1 mM |
| COc1ccc(-n2c(SC(C)C(=O)c3cc(C)ccc3C)nc3ccccc32)cc1 (stereo not drawn) [Z19576483] | > 1 mM |
| COc1ccc2nc(SC(C)C(=O)c3ccc(F)cc3)[nH]c2c1 (stereo not drawn) [Z16077798] | > 1 mM |
| COc1ccc(C(=O)C(C)Sc2nc3cc(C)ccc3[nH]2)cc1Cl (stereo not drawn) [Z5032180749] | > 1 mM |
| COCCn1c(SC(C)C(=O)c2ccc(OC)cc2)nc2ccccc21 (stereo not drawn) [Z16216221] | > 1 mM |
| COc1ccc2nc(SCCOCC3CCCO3)[nH]c2c1 (stereo not drawn) [Z1258859165] | > 1 mM |
| COc1ccc2nc(SC(C)C(=O)c3ccc(OC(F)F)cc3)[nH]c2c1 (stereo not drawn) [Z16077231] | > 1 mM |
| CCOc1ccc2[nH]c(SCCC(=O)c3ccc(F)cc3)nc2c1 [Z19828508] | > 1 mM |
| COc1ccc2nc(SC(C)C(=O)c3ccc(F)cc3F)[nH]c2c1 (stereo not drawn) [Z167736700] | > 1 mM |
| COc1ccc2nc(SC(C)C(=O)c3cc(C)ccc3C)[nH]c2c1 (stereo not drawn) [Z16077483] | > 1 mM |
| COc1ccc2nc(SC(C)C(=O)N(C)C)[nH]c2c1 (stereo not drawn) [Z92077129] | > 1 mM |
| COc1ccc2nc(SCC(=O)c3ccc(O)cc3)[nH]c2c1 [Z112468740] | > 1 mM |
| CCn1c(SC(C)C(=O)c2ccc(Br)cc2)nc2cc(S(N)(=O)=O)ccc21 (stereo not drawn) [Z51418902] | > 1 mM |
| COc1ccc2[nH]c(SCC(=O)c3ccc(O)c(O)c3)nc2c1 [Z223822242] | > 1 mM |

| SMILES | IC50 |
| --- | --- |
| CCOc1ccc2nc(SCC(=O)c3ccc(CC)cc3)[nH]c2c1 [Z55030990] | > 1 mM |
| CCn1c(SC(C)C(=O)c2c(F)cc(F)cc2F)nc2ccccc21 (stereo not drawn) [Z1098345881] | > 1 mM |
| COc1ccc2nc(SC(C)C(=O)c3ccc(NC(=O)C(C)(C)C)cc3)[nH]c2c1 (stereo not drawn) [Z50965385] | > 1 mM |
| CCn1c(SC(C)C(=O)c2cc(C)ccc2C)nc2cc(S(N)(=O)=O)ccc21 (stereo not drawn) [Z51418807] | > 1 mM |
| CCn1c(SC(C)C(=O)c2ccc3c(c2)CCN3C(C)=O)nc2ccccc21 (stereo not drawn) [Z165501154] | > 1 mM |
| COCCn1c(SC(C)C(=O)c2ccc3c(c2)CCN3C(C)=O)nc2ccccc21 (stereo not drawn) [Z165550978] | > 1 mM |
| Cc1ccc2[nH]c(SC(C)C(=O)c3c(F)cc(F)cc3F)nc2c1 (stereo not drawn) [Z1098347474] | > 1 mM |
| COc1ccc2nc(SC(C)C(=O)c3ccc(Br)cc3)[nH]c2c1 (stereo not drawn) [Z16077584] | > 1 mM |
| CCn1c(SC(C)C(=O)c2ccc(F)cc2)nc2cc(S(N)(=O)=O)ccc21 (stereo not drawn) [Z51419107] | > 1 mM |
| Cc1ccc2[nH]c(SC(C)C(=O)c3cccc(F)c3)nc2c1 (stereo not drawn) [Z5032180743] | > 1 mM |
| COc1ccc2nc(SC(C)C(=O)c3cc(C)c(C)cc3C)[nH]c2c1 (stereo not drawn) [Z16077531] | > 1 mM |
| COc1ccc2nc(SC(C)C(=O)c3cccc(Cl)c3)[nH]c2c1 (stereo not drawn) [Z16077229] | > 1 mM |
| COc1ccc2nc(SC(C)C(=O)c3ccc(NC(=O)C(C)C)cc3)[nH]c2c1 (stereo not drawn) [Z65841956] | > 1 mM |
| COc1ccc2nc(SCCC(=O)c3ccc(F)cc3)[nH]c2c1 [Z16077963] | > 1 mM |
| COc1ccc2nc(SC(C)C(=O)c3ccc4c(c3)CCC4)[nH]c2c1 (stereo not drawn) [Z16076970] | > 1 mM |
| COc1ccc2nc(SC(C)C(=O)Nc3ccc(F)cc3F)[nH]c2c1 (stereo not drawn) [Z112468618] | > 1 mM |
| COc1ccc2[nH]c(SC(C(N)=O)c3ccc(F)cc3)nc2c1 (stereo not drawn) [Z234729962] | > 1 mM |
| COc1ccc2nc(SC(C)C(=O)c3ccc(C)c(C)c3)[nH]c2c1 (stereo not drawn) [Z16077488] | > 1 mM |
| CCn1c(SC(C)C(=O)c2ccc(NS(C)(=O)=O)cc2)nc2ccccc21 (stereo not drawn) [Z50932618] | > 1 mM |
| CCC(Sc1nc2ccc(OC)cc2[nH]1)C(=O)c1ccc(OC)cc1 (stereo not drawn) [Z5032180767] | > 1 mM |
| Cc1ccc2[nH]c(SC(C)C(=O)c3ccc(OC(F)F)cc3)nc2c1 (stereo not drawn) [Z18443016] | > 1 mM |
| COc1ccc2nc(SC(C)C(=O)Nc3ccc(C)cc3)[nH]c2c1 (stereo not drawn) [Z16077036] | > 1 mM |
| CCn1c(SC(C)C(=O)c2ccc(Cl)cc2)nc2cc(S(N)(=O)=O)ccc21 (stereo not drawn) [Z51418567] | > 1 mM |
| COc1ccc2nc(SC(C)C(=O)c3ccc(OC)c(OC)c3)[nH]c2c1 (stereo not drawn) [Z940567722] | > 1 mM |
| CC(Sc1nc2ccccc2n1C)C(=O)c1ccc(NS(C)(=O)=O)cc1 (stereo not drawn) [Z50932699] | > 1 mM |

| SMILES | IC50 |
| --- | --- |
| CC(Sc1nc2ccccc2n1C(C)C)C(=O)c1ccc(C(C)C)cc1C(C)C (stereo not drawn) [Z54156331] | > 1 mM |
| CCC(Sc1nc2ccc(OC)cc2[nH]1)C(=O)c1ccc(NC(C)=O)cc1 (stereo not drawn) [Z1340653159] | > 1 mM |
| COc1ccc(-n2c(SC(C)C(=O)c3c(F)cc(F)cc3F)nc3ccccc32)cc1 (stereo not drawn) [Z5032180751] | > 1 mM |
| COc1ccc(C(=O)C(C)Sc2nc3ccc(OC)cc3[nH]2)cc1 (stereo not drawn) [Z16077705] | > 1 mM |
| Cc1ccc2[nH]c(SC(C)C(=O)c3ccc(F)cc3)nc2c1 (stereo not drawn) [Z18443583] | > 1 mM |
| CCOc1ccc(C(=O)C(C)Sc2nc3cc(S(N)(=O)=O)ccc3n2CC)cc1 (stereo not drawn) [Z51419689] | > 1 mM |
| CCC(Sc1nc2ccc(OC)cc2[nH]1)C(=O)c1ccccc1 (stereo not drawn) [Z447938100] | > 1 mM |
| COc1ccc2nc(SCC(O)c3ccccc3)[nH]c2c1 (stereo not drawn) [Z56784116] | > 1 mM |
| COc1ccc(C(=O)C(C)Sc2nc3ccc(OC)cc3[nH]2)c(OC)c1 (stereo not drawn) [Z16077640] | > 1 mM |
| COc1ccc(C(=O)C(Sc2nc3ccccc3n2C)c2ccc(OC)cc2)cc1 (stereo not drawn) [Z15478257] | > 1 mM |
| CCn1c(SC(C)C(=O)c2ccc3c(c2)CCC3)nc2cc(S(=O)(=O)N3CCOCC3)ccc21 (stereo not drawn) [Z16669629] | > 1 mM |
| COc1ccc2nc(SC(C)C(=O)c3[nH]c(C)c(C(C)=O)c3C)[nH]c2c1 (stereo not drawn) [Z98717471] | > 1 mM |
| CCc1ccc(C(=O)C(C)Sc2nc3cc(S(N)(=O)=O)ccc3n2CC)cc1 (stereo not drawn) [Z51418852] | > 1 mM |
| CCn1c(SC(C)C(=O)c2c(F)cc(F)cc2F)nc2cc(S(=O)(=O)N3CCCCC3)ccc21 (stereo not drawn) [Z5032180738] | > 1 mM |
| CCn1c(SC(C)C(=O)c2ccccc2)nc2cc(S(=O)(=O)N3CCOCC3)ccc21 (stereo not drawn) [Z16669878] | > 1 mM |
| COc1ccc2nc(SC(C)C(=O)c3ccccc3C(F)(F)F)[nH]c2c1 (stereo not drawn) [Z5032180788] | > 1 mM |
| COc1ccc2nc(SC(C)C(=O)c3ccc4c(c3)CCN4C(C)=O)[nH]c2c1 (stereo not drawn) [Z165591262] | > 1 mM |
| CCc1ccc(C(=O)C(C)Sc2nc3ccc(OC)cc3[nH]2)cc1 (stereo not drawn) [Z16077530] | > 1 mM |
| CCOc1ccc(C(=O)C(C)Sc2nc3ccccc3n2C)cc1 (stereo not drawn) [Z15479255] | > 1 mM |
| COc1ccc2nc(SC(C)C(=O)c3ccccc3)[nH]c2c1 (stereo not drawn) [Z16077228] | > 1 mM |
| CCc1ccc(C(=O)C(C)Sc2nc3cc(C)ccc3[nH]2)cc1 (stereo not drawn) [Z18443315] | > 1 mM |
| COc1ccc2nc(SC(C)C(=O)c3cccc(F)c3)[nH]c2c1 (stereo not drawn) [Z5032180758] | > 1 mM |
| COCCn1c(SC(C)C(=O)c2ccc(Br)cc2)nc2ccccc21 (stereo not drawn) [Z16216100] | > 1 mM |
| COc1ccc2nc(SC(C)C(=O)Nc3cc(F)ccc3F)[nH]c2c1 (stereo not drawn) [Z112468620] | > 1 mM |
| CCCC(=O)Nc1ccc(C(=O)C(C)Sc2nc3ccc(OC)cc3[nH]2)cc1 (stereo not drawn) [Z50965416] | > 1 mM |
